Test results reported in article PMC9974934, “Bifunctional small molecules targeting PD-L1/CXCL12 as dual immunotherapy for cancer treatment” (Signal Transduction and Targeted Therapy, 2023).
Where two headings read alike, the source gives them in different places.

Columns and labels:
PD-1/PD-L1 interaction = biological target: T1, PD-1/PD-L1 interaction (Homo sapiens, UniProt Q9NZQ7); experiment: PD-1/PD-L1 HTRF assay; format: biochemical; settings: read-out: IC50, anti-PD-1/PD-L1 potency
T1 construct: purchased Cisbio 64ICP01PEG&64ICP01PEH
T1 sequence (Q9NZQ7 19-238 limits assumed): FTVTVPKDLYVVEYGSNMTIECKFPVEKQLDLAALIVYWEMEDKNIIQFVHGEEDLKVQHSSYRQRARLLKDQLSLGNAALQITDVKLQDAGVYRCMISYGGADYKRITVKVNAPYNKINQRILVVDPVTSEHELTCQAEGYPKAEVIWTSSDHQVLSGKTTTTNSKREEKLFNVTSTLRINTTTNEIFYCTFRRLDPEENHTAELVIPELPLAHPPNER

[1] = tested on: HepG2 cells co-cultured with Jurkat T cells; experiment: HepG2 cell mortality in Jurkat T & HepG2 co-culture model; format: cell-based; settings: CCK-8
Description: Assessment of HepG2 cell mortality rate (Cellular). Firstly, HepG2 cells were stimulated with human IFN-γ (Peprotech, catalog number: 300-02) to express hPD-L1 stably. Jurkat T cells were stimulated with PHA-P (Invivogen, catalog number: inh-phap). Then, HepG2 (5×10^4) and Jurkat T cells (5×10^4) were added to the co-cultured model. […] Finally, the Jurkat T cells were completely removed by washing the supernatant (200 μL) with cold PBS for 4 times. The mortality rate of HepG2 cells was determined by CCK-8 assay (Dojindo, CCK8, 500 test).

B16-F10 melanoma tumors = experiment: In vivo efficacy in B16-F10 melanoma model; settings: mouse B16-F10 model
Description: (§1) In vivo efficacy study in a melanoma model and CT26 tumor model. Protocols for animal experiments (B16-F10 and CT-26 tumor model) were approved by the NIACEC (National Institutional Animal Care & Ethical Committee) at SMU (Southern Medical University). C57BL/6 male mice (6-8 weeks old) were purchased from Liaoning Changsheng Biosciences. Briefly, A total of 2×10^5 B16-F10 melanoma cells or CT26 cells (1×10^6) were inoculated into mouse (in the right flank) according to protocols of tumor transplantation studies in mice. […] Tumor volume was measured with a traceable electronic digital caliper (every 2 days).

[2] = Pharmacokinetic study in male SD rats; format: in vivo, rat; settings: for MRT last: read-out: MRT(0–t); for MRT inf: read-out: MRT(0–∞)
Description: Pharmacokinetic Study in Male SD Rats. Male SD rats (300–360 g) were purchased from Liaoning Changsheng Biotechnology Co., Ltd. Diet. […] The mobile phase consisted of a mixture of solvent A (acetonitrile) and solvent B (formic acid/ ultrapure water, 1:1000, v/v). The linear gradient program for the mobile phase was set as follows: 0 min 10% A; 0.5 min 30% A; 1 min 95% A; 2 min 95% A; 2.3 min 10% A. The flow rate of the mobile phase was 0.4 mL/min, and the injection volume was 2 μL. The XEVO TQD triple quadrupole mass spectrometer was equipped with an electrospray ionization (ESI) source; multiple reaction monitoring (MRM) mode was selected for quantitation. The Mass Lynx 4.1 software (Waters Corp.) was used for data acquisition. Mass spectral data were obtained in positive electrospray mode (ESI+) in MRM mode.

[3] = H&E staining of mice organs; format: in vivo, mouse
[4] = tested on: CXCL12-mediated Ca2+ cellular responses in THP-1 cells; experiment: Calcium flux assay in THP-1 cells; format: cell-based; settings: spectrofluorometry
Description: Calcium flux assays. THP-1 cells were incubated with Fluo-4AM (Invitrogen, catalog number: F14201) calcium-dependent fluorophore for 0.5 h, washed and resuspended. […] Ca^2+ flux was measured (Ex = 488 nm; Em = 520 nm).

[5] = Creatine kinase isoenzyme assay; format: in vivo, mouse; settings: mice
[6] = tested on: CXCL12-mediated cell migration, THP-1 cells; experiment: Transwell chemotaxis test in THP-1 cells; format: cell-based
[7] = tested on: CT-26 colon syngeneic tumor; experiment: In vivo efficacy in CT-26 colon syngeneic tumor model; design: species or system mouse; settings: 75 mg/kg for 17 days
Description: as §1
Figure. […] Then, sacrificed and tumors weights and volumes were measured. (A) Images of tumors and weight of tumors; (B) changes of body weights of mice during treatment; (C) Individual tumor growth curves over time (D) changes of tumor volume during treatment. *P < 0.05, **P < 0.01, and ****P < 0.0001 (n=3).

murine CXCL12 = biological target: T2, murine CXCL12 (Mus musculus, UniProt P40224); experiment: SPR binding to mCXCL12
T2 construct: purchased Sino Biological Biotics Inc 50025-MNAE-2
T2 sequence (P40224 22-93): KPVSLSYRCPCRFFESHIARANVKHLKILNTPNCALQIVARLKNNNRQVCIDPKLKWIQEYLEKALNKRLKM
Description: (§2) SPR, ITC, CD assay. […] SPRi assay was carried out using PlexAray HT.

[8] = Serum biochemistry for liver and kidney function; format: in vivo, mouse; settings: mice
human CXCL12 = biological target: T3, human CXCL12 (Homo sapiens, UniProt P48061); experiment: SPR binding to hCXCL12
T3 construct: purchased Sino Biological Biotics Inc 13511-HNCE-2
T3 sequence (P48061 22-93): as the sequence (P40224 22-93) above, with I18V, L70F counted along it
Description: as §2

[9] = rat, plasma, iv, I.V. 1 mg/kg, mean ± SD
[10] = rat, plasma, po, P.O. 18 mg/kg, mean ± SD

## COc1ccc(C(=O)/C=C/c2ccc(OCc3ccc(CNC(=O)CCCCNC(=O)C4CCCCN4Cc4ccc(OCc5cccc(-c6ccccc6)c5C)c(Br)c4)cc3)c(OC)c2)cc1 (centres unmarked) [CP1]
PD-1/PD-L1 interaction
  IC50: > 1000 nM

## COc1ccc(C(=O)/C=C/c2ccc(OCc3ccc(CNC(=O)C4CCCCN4Cc4ccc(OCc5cccc(-c6ccccc6)c5C)c(Br)c4)cc3)c(OC)c2)cc1 (centres unmarked) [CP2]
other
  melting point: 124.8 to 125.9 °C
PD-1/PD-L1 interaction
  IC50: > 1000 nM

## COc1ccc(C(=O)/C=C/c2ccc(OCc3ccc(CNC(=O)C4CCN(C(=O)C5CCCCN5Cc5ccc(OCc6cccc(-c7ccccc7)c6C)c(Br)c5)CC4)cc3)c(OC)c2)cc1 (centres unmarked) [CP3]
PD-1/PD-L1 interaction
  IC50: > 1000 nM

## COc1ccc(C(=O)/C=C/c2ccc(OCc3ccc(CNC(=O)CCCNC(=O)C4CCCCN4Cc4ccc(OCc5cccc(-c6ccccc6)c5C)c(Br)c4)cc3)c(OC)c2)cc1 (centres unmarked) [CP4]
PD-1/PD-L1 interaction
  IC50: > 1000 nM

## COc1ccc(C(=O)/C=C/c2ccc(OCc3ccc(CNC(=O)CCNC(=O)C4CCCCN4Cc4ccc(OCc5cccc(-c6ccccc6)c5C)c(Br)c4)cc3)c(OC)c2)cc1 (centres unmarked) [CP5]
PD-1/PD-L1 interaction
  IC50: > 1000 nM

## COc1ccc(C(=O)/C=C/c2ccc(OCc3ccc(CNC(=O)C4CCCCN4Cc4cc(Cl)c(OCc5cccc(-c6ccccc6)c5C)cc4OCc4ccc(OC(F)(F)F)cc4)cc3)c(OC)c2)cc1 (centres unmarked) [CP6]
PD-1/PD-L1 interaction
  IC50: > 1000 nM

## COc1ccc(C(=O)/C=C/c2ccc(OCc3ccc(CNC(=O)C4CCN(C(=O)C5CCCCN5Cc5cc(Cl)c(OCc6cccc(-c7ccccc7)c6C)cc5OCc5ccc(OC(F)(F)F)cc5)CC4)cc3)c(OC)c2)cc1 (centres unmarked) [CP7]
PD-1/PD-L1 interaction
  IC50: > 1000 nM

## COc1ccc(C(=O)/C=C/c2ccc(OCc3ccc(CNC(=O)CCCNC(=O)C4CCCCN4Cc4cc(Cl)c(OCc5cccc(-c6ccccc6)c5C)cc4OCc4ccc(OC(F)(F)F)cc4)cc3)c(OC)c2)cc1 (centres unmarked) [CP8]
PD-1/PD-L1 interaction
  IC50: > 1000 nM

## COc1ccc(C(=O)/C=C/c2ccc(OCc3ccc(CNC(=O)CCCNC(=O)C(C)(C)NCc4cc(Cl)c(OCc5cccc(-c6ccccc6)c5C)cc4OCc4cccc(C#N)c4)cc3)c(OC)c2)cc1 [CP9]
PD-1/PD-L1 interaction
  IC50: 101 nM

## COc1ccc(C(=O)/C=C/c2ccc(OCc3ccc(CNC(=O)C(C)(C)NCc4cc(Cl)c(OCc5cccc(-c6ccccc6)c5C)cc4OCc4cccc(C#N)c4)cc3)c(OC)c2)cc1 [CP10]
PD-1/PD-L1 interaction
  IC50: > 1000 nM

## COc1ccc(C(=O)/C=C/c2ccc(OCc3ccc(CNC(=O)CCNC(=O)C(C)(C)NCc4cc(Cl)c(OCc5cccc(-c6ccccc6)c5C)cc4OCc4cccc(C#N)c4)cc3)c(OC)c2)cc1 [CP11]
PD-1/PD-L1 interaction
  IC50: 870 nM

## COc1ccc(C(=O)/C=C/c2ccc(OCc3ccc(CNC(=O)CCCCNC(=O)C(C)(C)NCc4cc(Cl)c(OCc5cccc(-c6ccccc6)c5C)cc4OCc4cccc(C#N)c4)cc3)c(OC)c2)cc1 [CP12]
PD-1/PD-L1 interaction
  IC50: > 1000 nM

## CCOC(=O)COc1cc(OCc2cccc(-c3ccccc3)c2C)c(Cl)cc1CN1CCCCC1C(=O)NCCC(=O)NCc1ccc(COc2ccc(/C=C/C(=O)c3ccc(OC)cc3)cc2OC)cc1 (centres unmarked) [CP13]
PD-1/PD-L1 interaction
  IC50: > 1000 nM

## CCOC(=O)COc1cc(OCc2cccc(-c3ccccc3)c2C)c(Cl)cc1CN1CCCCC1C(=O)NCc1ccc(COc2ccc(/C=C/C(=O)c3ccc(OC)cc3)cc2OC)cc1 (centres unmarked) [CP14]
PD-1/PD-L1 interaction
  IC50: > 1000 nM

## CCOC(=O)COc1cc(OCc2cccc(-c3ccccc3)c2C)c(Cl)cc1CN1CCCCC1C(=O)N1CCC(C(=O)NCc2ccc(COc3ccc(/C=C/C(=O)c4ccc(OC)cc4)cc3OC)cc2)CC1 (centres unmarked) [CP15]
PD-1/PD-L1 interaction
  IC50: > 1000 nM

## CCOC(=O)COc1cc(OCc2cccc(-c3ccccc3)c2C)c(Cl)cc1CN1CCCCC1C(=O)NCCCC(=O)NCc1ccc(COc2ccc(/C=C/C(=O)c3ccc(OC)cc3)cc2OC)cc1 (centres unmarked) [CP16]
PD-1/PD-L1 interaction
  IC50: > 1000 nM

## COc1ccc(C(=O)/C=C/c2ccc(OCc3ccc(CNC(=O)C4CCCCN4Cc4cc(Cl)c(OCc5cccc(-c6ccccc6)c5C)cc4OCc4cccc(C#N)c4)cc3)c(OC)c2)cc1 (centres unmarked) [CP17]
other
  melting point: 128.1 to 128.9 °C
PD-1/PD-L1 interaction
  IC50: 126 nM

## COc1ccc(C(=O)/C=C/c2ccc(OCc3ccc(CNC(=O)CCCNC(=O)C4CCCCN4Cc4cc(Cl)c(OCc5cccc(-c6ccccc6)c5C)cc4OCc4cccc(C#N)c4)cc3)c(OC)c2)cc1 (centres unmarked) [CP18]
other
  melting point: 120.1 to 120.9 °C
PD-1/PD-L1 interaction
  IC50: 107 nM

## COc1ccc(C(=O)/C=C/c2ccc(OCc3ccc(CNC(=O)CCCCNC(=O)C4CCCCN4Cc4cc(Cl)c(OCc5cccc(-c6ccccc6)c5C)cc4OCc4cccc(C#N)c4)cc3)c(OC)c2)cc1 (centres unmarked) [CP19]
PD-1/PD-L1 interaction
  IC50: > 1000 nM

## COc1ccc(C(=O)/C=C/c2ccc(OCc3ccc(CNC(=O)CCNC(=O)C4CCCCN4Cc4cc(Cl)c(OCc5cccc(-c6ccccc6)c5C)cc4OCc4cccc(C#N)c4)cc3)c(OC)c2)cc1 (centres unmarked) [CP20]
PD-1/PD-L1 interaction
  IC50: 88.5 nM

## COc1ccc(C(=O)/C=C/c2ccc(OCc3ccc(CNC(=O)C4CCN(C(=O)C5CCCCN5Cc5cc(Cl)c(OCc6cccc(-c7ccccc7)c6C)cc5OCc5cccc(C#N)c5)CC4)cc3)c(OC)c2)cc1 (centres unmarked) [CP21]
[1]
  Death of HepG2 cells: dose-dependently promoted
B16-F10 melanoma tumors
  Body weights of mice during treatment: did not change markedly
B16-F10 melanoma tumors; 75 and 125 mg/kg
  Tumor weights and volumes: dose-dependently decreased
B16-F10 melanoma tumors; oral 125 mg/kg
  Tumor growth inhibition (TGI): 58.5%
[2]; P.O. 18 mg/kg, mean ± SD
  CL: 140.8 ± 5.0 L/h/kg
  Vz: 467.4 ± 184.8 L/kg
[2]; rat, plasma, iv, I.V. 1 mg/kg
  Tmax: 0.083 h
[2]; [9]
  AUC(0-inf): 2138 ± 18.3 ng·h/mL
  AUC(0-t): 2032 ± 11.4 ng·h/mL
  Cmax: 326 ± 58.1 ng/mL
  clearance: 8.33 mL/min/kg
  half-life: 744 ± 18 min
  MRT last: 11.3 ± 0.4 h
  MRT inf: 14 ± 0.5 h
[2]; rat, plasma, iv, I.V. 1 mg/kg, mean ± SD, read-out: Vz
  Vd: 8.4 ± 0.2 L/kg
[2]; [10]
  AUC(0-inf): 128 ± 4.6 ng·h/mL
  AUC(0-t): 128 ± 4.8 ng·h/mL
  Cmax: 20.5 ± 3.1 ng/mL
  Tmax: 6.3 ± 0.8 h
  half-life: 132 ± 48 min
  MRT last: 5.9 ± 0.2 h
  MRT inf: 6 ± 0.2 h
[3]
  Morphological aberration of organs (H&E staining): no apparent morphological aberration
[4]
  CXCL12-induced calcium responses: dose-dependently inhibited
[5]
  Cardiotoxicity (creatine kinase isoenzyme assay): did not cause cardiotoxicity
[6]
  CXCL12-mediated cell migration: dose-dependently inhibited
[7]
  In vivo antitumor efficacy: similarly high in vivo antitumor efficacy
Murine CXCL12
  Kd: 76.5 nM
[8]
  Hepatotoxicity and nephrotoxicity (serum biochemistry): did not induce hepatotoxicity and nephrotoxicity
Human CXCL12
  Kd: 160 nM
